Values after ≈ are worked out from the molar mass of the structure shown. Like-named read-outs stand apart in the source and are kept apart here.
Experiments:
[1] = system: Staphylococcus saprophyticus; test: In vitro antibacterial activity of Example 5 (MIC); assay type: cell-based
B. anthracis = test: microbe, parasite or virus in culture; assay type: cell-based, Bacillus anthracis
Neisseria gonorrhoeae = test: MIC against 100 N. gonorrhoeae isolates, CLSI reference agar dilution; assay type: cell-based
Haemophilus influenzae = test: In vitro antibacterial activity of Example 5 (MIC); assay type: cell-based
Staphylococcus aureus = test: Modal MIC against S. aureus isolates of the thigh model; assay type: cell-based
Protocol: The S. aureus strains used included a methicillin-resistant isolate obtained from the American Type Culture Collection (ATCC33591) (MRSA). In addition, three S. aureus clinical isolates were utilized; (1) a methicillin sensitive isolate (MSSA); (2) a recent methicillin-resistant clinical isolate of the USA300 genotype (USA300) and (3) a recent methicillin-resistant clinical isolate of the USA100 genotype ([…]).
The MIC against each isolate was determined using the broth microdilution method following CLSI guidelines (Rayner et al. Clinical pharmacodynamics of linezolid in seriously ill patients treated in a compassionate use program. Clin Pharmacokinet 2003. 42:1411-23). Ten individual determinations were performed for each strain and the Modal MIC was used for all PK/PD calculations.

Enterobacter aerogenes = test: In vitro antibacterial activity of Example 5 (MIC); assay type: cell-based; conditions: Klebsiella aerogenes
Enterococcus faecium = test: In vitro antibacterial activity of Example 5 (MIC); assay type: cell-based
Serratia marcescens = test: In vitro antibacterial activity of Example 5 (MIC); assay type: cell-based
Pseudomonas aeruginosa = test: In vitro antibacterial activity of Example 5 (MIC); assay type: cell-based
[2] = system: 7 S. aureus strains and 1 strain of Streptococcus pyogenes; test: Minimum bactericidal concentration (MBC); assay type: cell-based, Staphylococcus aureus; Streptococcus pyogenes; conditions: 7 S. aureus strains and 1 S. pyogenes strain
[3] = system: Streptococcus pyogenes ATCC12384; test: Modal MIC against S. pyogenes ATCC12384; assay type: cell-based
Protocol: The MIC against S. pyogenes ATCC12384 was determined using the broth microdilution method following CLSI guidelines. Three individual determinations were performed for each strain and the Modal MIC was used for all PK/PD calculations. All animal experiments were performed under UK Home Office Licensure with local ethical committee clearance. All experiments were performed by technicians who have completed parts 1, 2 and 3 of the Home Office Personal License course and hold current personal licenses.

Legionella pneumophila = test: microbe, parasite or virus in culture; assay type: cell-based
[4] = Plasma pharmacokinetics in S. pyogenes infected mice; assay type: in vivo; conditions: mouse, ip, with ABT
Protocol: Groups of satellite mice infected with S. pyogenes, as described above, were used for determining plasma concentrations. Dosing started 2 hours after infection and whole blood samples were taken at 0.5, 1, 2, 4, 6, 8, 12 and 24 h. Mice from the satellite PK study were euthanized by inhaled 5% isofluorane at specified time points post-treatment, mice were bled immediately by cardiac puncture. Heparinised blood samples were separated by centrifugation for five minutes at 13200 rpm. Plasma samples were stored at minus 80° C. before transfer to the client for analysis.
For the PK arm of the study, 3 mice per time point per unit dose were used. Due to unintended changes in the final work order, the 80 and 160 mg/kg dosing groups initially were administered Example 5 without prior treatment with aminobenzotriazole. Once this was realised, the remaining mice were re-distributed across the dosing groups and group size was reduced to two mice per time point.
Biological samples containing Example 5 were extracted using protein precipitation. To one volume of sample, 5 volumes of acetonitrile containing the internal standard (Glyburide) were added. The mixture was then mixed and the plate was centrifuged at 3200 rpm for 5 min. A 200 μL volume of the supernatant was dried down and, reconstituted in mobile phase and the mixture was injected onto liquid chromatography-mass spectrometry (LC-MS). A Sciex API 4000, controlled by Analyst v1.4.2, was used for the acquisition of the data and the quantification of Example 5.
The plasma profile for each dose group was obtained by calculating the average plasma concentration of compound in each of the two to three animals per time point. The area under the plasma concentration time curve from zero to infinity (AUC); maximum plasma drug concentration (Cmax); time to reach maximum concentration (tmax); and plasma half-life (t1/2) for each dose group was determined by non-compartmental analysis (WinNonLin 5.2, Pharsight). The non-compartmental Model 200 was used in the analysis.

Finegoldia magna = test: In vitro antibacterial activity of Example 5 against anaerobes (MIC, agar dilution); assay type: cell-based; conditions: ATCC53516; Finegoldia magna (ATCC 53516)
S. pyogenes ARC838 = test: Emergence of resistance with serial passage; assay type: cell-based, Streptococcus pyogenes; conditions: after twenty passages with Example 5, S. pyogenes ARC838
Klebsiella pneumoniae = test: In vitro antibacterial activity of Example 5 (MIC); assay type: cell-based
[5] = azithromycin-intermediate isolates

C[C@@H]1CN2c3c(cc4c(N5C(=O)OC[C@@H]5C)noc4c3F)CC3(C(=O)NC(=O)NC3=O)[C@H]2[C@H](C)O1 [Example 5, (2R,4S,4aS)-11-Fluoro-2,4-dimethyl-8-[(4S)-4-methyl-2-oxo-1,3-oxazolidin-3-yl]-1,2,4,4a-tetrahydro-2′H,6H-spiro[1,4-oxazino[4,3-a][1,2]oxazolo[4,5-g]quinoline-5,5′-pyrimidine]-2′,4′,6′(1′H,3′H)-trione]
MIC [1]: 0.5 µg/mL (≈ 1.03 µM)
MIC90 ([1]; S. saprophyticus, n=16): 0.5 µg/mL (≈ 1.03 µM)
MIC range (B. anthracis; B. anthracis, BSL3 testing): 0.125 to 1 µg/mL
MIC90 (B. anthracis; Bacillus anthracis): 0.5 µg/mL (≈ 1.03 µM)
MIC (Neisseria gonorrhoeae; Neisseria gonorrhoeae, ATCC49226, QC strain N. gonorrhoeae ATCC 49226, read-out: MIC): 0.06 µg/mL (≈ 0.123 µM)
MIC (Neisseria gonorrhoeae; Neisseria gonorrhoeae, all 100 N. gonorrhoeae isolates tested, read-out: MIC values): ≤ 0.25 µg/mL
MIC90 (Neisseria gonorrhoeae; Neisseria gonorrhoeae, azithromycin-intermediate isolates, read-out: MIC90): 0.12 µg/mL (≈ 0.246 µM)
MIC (Neisseria gonorrhoeae; Neisseria gonorrhoeae, azithromycin-susceptible and -intermediate isolates, read-out: modal MIC): 0.06 µg/mL (≈ 0.123 µM)
MIC90 (Neisseria gonorrhoeae; Neisseria gonorrhoeae, azithromycin-susceptible isolates, read-out: MIC90): 0.06 µg/mL (≈ 0.123 µM)
MIC90 (Neisseria gonorrhoeae; Neisseria gonorrhoeae, ciprofloxacin-intermediate and -resistant strains, read-out: MIC90): 0.12 µg/mL (≈ 0.246 µM)
MIC (Neisseria gonorrhoeae; Neisseria gonorrhoeae, ciprofloxacin-intermediate and -resistant strains, read-out: modal MIC): 0.06 µg/mL (≈ 0.123 µM)
MIC90 (Neisseria gonorrhoeae; Neisseria gonorrhoeae, non-susceptible phenotypes, read-out: MIC90): 0.06 to 0.12 µg/mL (≈ 0.123 to 0.246 µM)
MIC (Neisseria gonorrhoeae; Neisseria gonorrhoeae, penicillin-intermediate and -resistant strains, read-out: modal MIC): 0.06 µg/mL (≈ 0.123 µM)
MIC90 (Neisseria gonorrhoeae; Neisseria gonorrhoeae, penicillin-intermediate strains, read-out: MIC90): 0.06 µg/mL (≈ 0.123 µM)
MIC90 (Neisseria gonorrhoeae; Neisseria gonorrhoeae, penicillin-resistant strains, read-out: MIC90): 0.12 µg/mL (≈ 0.246 µM)
MIC90 (Neisseria gonorrhoeae; Neisseria gonorrhoeae, susceptible phenotypes (ciprofloxacin-, tetracycline- and azithromycin-susceptible), read-out: MIC90): 0.06 µg/mL (≈ 0.123 µM)
MIC (Neisseria gonorrhoeae; Neisseria gonorrhoeae, tetracycline-intermediate and -resistant strains, read-out: modal MIC): 0.06 µg/mL (≈ 0.123 µM)
MIC90 (Neisseria gonorrhoeae; Neisseria gonorrhoeae, tetracycline-intermediate strains, read-out: MIC90): 0.06 µg/mL (≈ 0.123 µM)
MIC90 (Neisseria gonorrhoeae; Neisseria gonorrhoeae, tetracycline-resistant strains, read-out: MIC90): 0.12 µg/mL (≈ 0.246 µM)
MIC (Neisseria gonorrhoeae; Neisseria gonorrhoeae, various subsets of isolates including those non-susceptible to comparator agents, read-out: modal MIC): 0.06 µg/mL (≈ 0.123 µM)
MIC50 (Neisseria gonorrhoeae; Neisseria gonorrhoeae, all 100 N. gonorrhoeae isolates, read-out: MIC50): 0.06 µg/mL (≈ 0.123 µM)
MIC90 (Neisseria gonorrhoeae; Neisseria gonorrhoeae, all 100 N. gonorrhoeae isolates, read-out: MIC90): 0.125 µg/mL (≈ 0.256 µM)
MIC (Neisseria gonorrhoeae; QC strain N. gonorrhoeae ATCC 49226): 0.12 µg/mL (≈ 0.246 µM)
MIC90 (Neisseria gonorrhoeae; all 100 N. gonorrhoeae isolates): 0.12 µg/mL (≈ 0.246 µM)
MIC50 (Neisseria gonorrhoeae; [5]): 0.06 µg/mL (≈ 0.123 µM)
isolates at 0.06 μg/mL (Neisseria gonorrhoeae; [5]): 66.7%
MIC50 (Neisseria gonorrhoeae; azithromycin-susceptible isolates): 0.06 µg/mL (≈ 0.123 µM)
MIC50 (Neisseria gonorrhoeae; ciprofloxacin-intermediate and -resistant strains): 0.06 µg/mL (≈ 0.123 µM)
MIC50 (Neisseria gonorrhoeae; penicillin-intermediate strains): 0.06 µg/mL (≈ 0.123 µM)
MIC50 (Neisseria gonorrhoeae; penicillin-resistant strains): 0.06 µg/mL (≈ 0.123 µM)
isolates at ≦0.06 μg/mL (Neisseria gonorrhoeae; penicillin-resistant strains): 85.7%
MIC50 (Neisseria gonorrhoeae; tetracycline-intermediate strains): 0.06 µg/mL (≈ 0.123 µM)
MIC50 (Neisseria gonorrhoeae; tetracycline-resistant strains): 0.06 µg/mL (≈ 0.123 µM)
isolates at 0.06 μg/mL (Neisseria gonorrhoeae; tetracycline-resistant strains): 66.7%
MIC (Haemophilus influenzae; ATCC49619, Haemophilus influenzae (ATCC 49619 CLSI QC Strain)): 0.25 µg/mL (≈ 0.513 µM)
MIC90 (Haemophilus influenzae; Haemophilus influenzae, n=29): 1 µg/mL (≈ 2.05 µM)
MIC range (Haemophilus influenzae; Haemophilus influenzae, n=29): 0.125 to 1 µg/mL
MIC (Staphylococcus aureus; ATCC 33591 / MRSA, S. aureus MRSA (ATCC33591)): 0.125 µg/mL (≈ 0.256 µM)
MIC (Staphylococcus aureus; S. aureus MSSA clinical isolate): 0.0625 µg/mL (≈ 0.128 µM)
MIC (Staphylococcus aureus; S. aureus USA100 clinical isolate): 0.125 µg/mL (≈ 0.256 µM)
MIC (Staphylococcus aureus; S. aureus USA300 clinical isolate): 0.25 µg/mL (≈ 0.513 µM)
MIC (Enterobacter aerogenes): 64 µg/mL (≈ 131 µM)
MIC (Enterococcus faecium): 16 µg/mL (≈ 32.8 µM)
MIC90 (Enterococcus faecium; E. faecium): 16 µg/mL (≈ 32.8 µM)
MIC (Enterococcus faecium; Enterococcus faecium (Vancomycin-R, fluoroquinolone-R)): 8 µg/mL (≈ 16.4 µM)
MIC (Serratia marcescens): > 64 µg/mL
MIC (Pseudomonas aeruginosa; PAO1, Pseudomonas aeruginosa (PAO1)): > 64 µg/mL
MIC (Pseudomonas aeruginosa; PAO1, Pseudomonas aeruginosa (PAO1, mexABCDXY-)): 2 µg/mL (≈ 4.1 µM)
MIC (Pseudomonas aeruginosa; Pseudomonas aeruginosa (clinical isolate)): > 64 µg/mL
minimum bactericidal concentrations (MBCs) relative to the MIC [2]: ≤ 2 fold
MIC [3]: 0.125 µg/mL (≈ 0.256 µM)
MIC90 (Legionella pneumophila): 0.06 µg/mL (≈ 0.123 µM)
MIC range (Legionella pneumophila; n=11): 8 to 60 ng/mL
AUC(0-inf) ([4]; nominal dose 10 mg/kg (measured 4.1)): 32.6 µg·h/mL
AUC(0-inf) ([4]; nominal dose 40 mg/kg (measured 25.4)): 109 µg·h/mL
AUC(0-inf) ([4]; nominal dose 60 mg/kg (measured 44.2)): 153 µg·h/mL
AUC(0-inf) ([4]; nominal dose 80 mg/kg (measured 66.2)): 251 µg·h/mL
AUC(0-inf) ([4]; nominal dose 160 mg/kg (measured 142.0)): 614 µg·h/mL
MIC (Finegoldia magna): < 0.03 µg/mL
decrease in susceptibility over the starting culture (S. pyogenes ARC838): 8 fold
MIC (Klebsiella pneumoniae; ATCC700603, Klebsiella pneumoniae (ATCC 700603 CLSI QC Strain)): > 64 µg/mL
MIC (Klebsiella pneumoniae; Klebsiella pneumoniae (In vivo strain)): 16 µg/mL (≈ 32.8 µM)
MIC (Klebsiella pneumoniae; Klebsiella pneumoniae (isolates not further specified)): 64 µg/mL (≈ 131 µM)

Reference: US8889671B2, “Compounds and methods for treating bacterial infections” (AstraZeneca AB, priority 2013, dated 2014)
